For experiment [1], the target named is T1, isolated recombinant JAK2 kinase domain (Homo sapiens, UniProt O60674).
T1 construct: The activity of the isolated recombinant JAK1 and JAK2 kinase domain was measured
The experiment can be described thus: JAK2 enzyme assay (Caliper LabChip, Ki). The conditions noted are these: 25 μM ATP. It is filed as biochemical. The method, then:
(§1) JAK Enzyme Assays were Carried Out as Follows:
(§2) The activity of the isolated recombinant JAK1 and JAK2 kinase domain was measured by monitoring phosphorylation of a peptide derived from JAK3 (Val-Ala-Leu-Val-Asp-Gly-Tyr-Phe-Arg-Leu-Thr-Thr, fluorescently labeled on the N-terminus with 5-carboxyfluorescein) using the Caliper LabChip® technology (Caliper Life Sciences, Hopkinton, Mass.). […] Reactions were incubated at 22° C. in 384-well polypropylene microtiter plates for 30 minutes and then stopped by addition of 25 μL of an EDTA containing solution (100 mM HEPES buffer (pH 7.2), 0.015% Brij-35, 150 mM EDTA), resulting in a final EDTA concentration of 50 mM. After termination of the kinase reaction, the proportion of phosphorylated product was determined as a fraction of total peptide substrate using the Caliper LabChip® 3000 according to the manufacturer's specifications. Ki values were then determined using the Morrison tight binding model (Morrison, J. F., Biochim. Biophys. Acta. 185:269-296 (1969); William, J. W. and Morrison, J. F., Meth. Enzymol., 63:437-467 (1979)) modified for ATP-competitive inhibition [Ki=Ki,app/(1+[ATP]/Km,app)].

The subject of experiment [2] is JAK1-dependent STAT6 phosphorylation downstream of IL-13 stimulation in BEAS-2B human bronchial epithelial cells. The experiment can be described thus: JAK1 pathway assay in BEAS-2B cells (IL-13 stimulated STAT6 phosphorylation, MSD). The format is cell-based. The conditions noted are these: read-out: P-STAT6 BEAS2B + IL13 IC50. The procedure:
JAK1 Pathway Assay in Cell Lines was Carried Out as Follows:
Inhibitor potency (EC50) was determined in cell-based assays designed to measure JAK1 dependent STAT phosphorylation. As noted above, inhibition of IL-4, IL-13, and IL-9 signaling by blocking the Jak/Stat signaling pathway can alleviate asthmatic symptoms in pre-clinical lung inflammation models (Mathew et al., 2001, J Exp Med 193(9): 1087-1096; Kudlacz et. al., 2008, Eur J. Pharmacol 582(1-3): 154-161).
In one assay approach, TF-1 human erythroleukemia cells obtained from the American Type Culture Collection (ATCC; Manassas, Va.) were used to measure JAK1-dependent STAT6 phosphorylation downstream of IL-13 stimulation. Prior to use in the assays, TF-1 cells were starved of GM-CSF overnight in OptiMEM medium (Life Technologies, Grand Island, N.Y.) supplemented with 0.5% charcoal/dextran stripped fetal bovine serum (FBS), 0.1 mM non-essential amino acids (NEAA), and 1 mM sodium pyruvate. The assays were run in 384-well plates in serum-free OptiMEM medium using 300,000 cells per well. In a second assay approach, BEAS-2B human bronchial epithelial cells obtained from ATCC were plated at 100,000 cells per well of a 96-well plate one day prior to the experiment. The BEAS-2B assay was run in complete growth medium (bronchial epithelial basal medium plus bulletkit; Lonza; Basel, Switzerland).
Test compounds were serially diluted 1:2 in DMSO and then diluted 1:50 in medium just before use. Diluted compounds were added to the cells, for a final DMSO concentration of 0.2%, and incubated for 30 min (for the TF-1 assay) or 1 hr (for the BEAS-2B assay) at 37° C. Then, cells were stimulated with human recombinant cytokine at their respective EC90 concentrations, as previously determined for each individual lot. Cells were stimulated with IL-13 (R&D Systems, Minneapolis, Minn.) for 15 min at 37° C. The TF-1 cell reactions were stopped by the direct addition of 10× lysis buffer (Cell Signaling Technologies, Danvers, Mass.), whereas the BEAS-2B cell incubations were halted by the removal of medium and addition of 1× lysis buffer. The resultant samples were frozen in the plates at −80° C. Compound mediated inhibition of STAT6 phosphorylation was measured in the cell lysates using MesoScale Discovery (MSD) technology (Gaithersburg, Md.). EC50 values were determined as the concentration of compound required for 50% inhibition of STAT phosphorylation relative to that measured for the DMSO control.

The target of experiment [3] is T2, isolated recombinant JAK1 kinase domain (Homo sapiens, UniProt P23458).
T2 construct: The activity of the isolated recombinant JAK1 and JAK2 kinase domain was measured
T2 sequence (P23458 875-1153 limits assumed): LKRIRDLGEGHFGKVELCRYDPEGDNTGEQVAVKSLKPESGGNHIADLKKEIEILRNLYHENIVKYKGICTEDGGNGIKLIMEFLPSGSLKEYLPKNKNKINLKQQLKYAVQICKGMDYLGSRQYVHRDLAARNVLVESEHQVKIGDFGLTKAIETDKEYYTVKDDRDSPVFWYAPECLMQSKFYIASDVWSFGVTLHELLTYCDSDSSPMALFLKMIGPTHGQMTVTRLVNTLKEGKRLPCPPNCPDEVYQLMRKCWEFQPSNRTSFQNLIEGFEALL
The experiment can be described thus: JAK1 enzyme assay (Caliper LabChip, Ki). The format is biochemical. The conditions noted are these: recombinant JAK1 kinase domain, 25 μM ATP. The procedure: as §1, §2

The values that follow come from patent publication US20180265515A1 (Genentech, Inc., priority 2015, published 2018).

One may read the Ki as a dissociation constant, usually derived from enzyme kinetics or from competition with a known ligand. In general, IC50 refers to the concentration at which inhibition is half-maximal.

T1 sequence (O60674 849-1124 limits assumed): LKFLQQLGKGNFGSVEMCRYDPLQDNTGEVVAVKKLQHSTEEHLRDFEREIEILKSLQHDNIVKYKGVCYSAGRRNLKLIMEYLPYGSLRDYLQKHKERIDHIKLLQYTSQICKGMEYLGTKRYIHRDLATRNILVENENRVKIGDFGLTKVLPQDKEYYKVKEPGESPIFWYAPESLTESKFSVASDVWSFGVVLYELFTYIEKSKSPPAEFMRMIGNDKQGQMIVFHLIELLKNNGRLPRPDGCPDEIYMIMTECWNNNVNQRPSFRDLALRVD

In the case of `CS(=O)(=O)c1ccc(OC(F)F)c(-c2n[nH]cc2NC(=O)c2cnn3cccnc23)c1` [Example 4, N-[3-[2-(difluoromethoxy)-5-methylsulfonyl-phenyl]-1H-pyrazol-4-yl]pyrazolo[1,5-a]pyrimidine-3-carboxamide], the Ki was 0.16 nM in experiment [1] and 0.45 nM in experiment [3]. In addition, the IC50 in experiment [2] was found to be 35 nM.
Consider `CSc1ccc(OC(F)F)c(-c2nn(CC(=O)N3CCN([C@H]4CC[C@H](C#N)CC4)CC3)cc2NC(=O)c2cnn3cccnc23)c1` [Example 100, N-[1-[2-[4-(4-cyanocyclohexyl)piperazin-1-yl]-2-oxo-ethyl]-3-[2-(difluoromethoxy)-5-methylsulfanyl-phenyl]pyrazol-4-yl]pyrazolo[1,5-a]pyrimidine-3-carboxamide], for which the Ki was found to be 0.6 nM in experiment [1] and 0.41 nM in experiment [3]. The half-inhibitory concentration (IC50) in experiment [2] was 9.4 nM.
The like results for `O=C(Nc1cn(Cc2cn(C3CCN(C4COC4)CC3)nn2)nc1-c1cc(SC2CC2)ccc1OC(F)F)c1cnn2cccnc12` [Example 174, N-[3-[5-cyclopropylsulfanyl-2-(difluoromethoxy)phenyl]-1-[[1-[1-(oxetan-3-yl)-4-piperidyl]triazol-4-yl]methyl]pyrazol-4-yl]pyrazolo[1,5-a]pyrimidine-3-carboxamide] were, in that order, 0.21 nM, 0.27 nM and 11 nM.
Taken in the same sequence, the figures for `CSc1ccc(OC(F)F)c(-c2nn(CC(=O)N3CCN(CC4CCOCC4)CC3)cc2NC(=O)c2cnn3cccnc23)c1` [Example 65, N-[3-[2-(difluoromethoxy)-5-methylsulfanyl-phenyl]-1-[2-oxo-2-[4-(tetrahydropyran-4-ylmethyl)piperazin-1-yl]ethyl]pyrazol-4-yl]pyrazolo[1,5-a]pyrimidine-3-carboxamide] were 0.49 nM, 0.41 nM and 15 nM.
For the compound `CCN1CCN(C(=O)Cn2cc(NC(=O)c3cnn4cccnc34)c(-c3cc(SC4COC4)ccc3OC(F)F)n2)CC1` [Example 181, N-[3-[2-(difluoromethoxy)-5-(oxetan-3-ylsulfanyl)phenyl]-1-[2-(4-ethylpiperazin-1-yl)-2-oxo-ethyl]pyrazol-4-yl]pyrazolo[1,5-a]pyrimidine-3-carboxamide], the values for the inhibitory constant (Ki) in experiment [1] and in experiment [3] were 1.8 nM and 0.8 nM, respectively. Also, the IC50 in experiment [2] was 83 nM.
Taken in the same sequence, the figures for `CC(C)Sc1ccc(OC(F)F)c(-c2nn(C[C@H]3CCCN3)cc2NC(=O)c2cnn3cccnc23)c1` [Example 113, N-[3-[2-(difluoromethoxy)-5-isoproplsulfanyl-phenyl]-1-[[(2R)-pyrrolidin-2-yl]methyl]pyrazol-4-yl]pyrazolo[1,5-a]pyrimidine-3-carboxamide] were 0.78 nM, 0.64 nM and 20 nM.
Taken in the same sequence, the figures for `CSc1ccc(OC(F)F)c(-c2nn(CC(=O)N3CC=CCC3)cc2NC(=O)c2cnn3cccnc23)c1` [Example 67, N-[3-[2-(difluoromethoxy)-5-methylsulfanyl-phenyl]-1-[2-(3,6-dihydro-2H-pyridin-1-yl)-2-oxo-ethyl]pyrazol-4-yl]pyrazolo[1,5-a]pyrimidine-3-carboxamide] were 0.27 nM, 0.19 nM and 8.9 nM.
Taken in the same sequence, the figures for `CSc1ccc(OC(F)F)c(-c2nn(CC(=O)N3CCC(CN4CCN(CC(=O)N(C)C)C[C@@H]4C)CC3)cc2NC(=O)c2cnn3cccnc23)c1` [Example 94, N-[3-[2-(difluoromethoxy)-5-methylsulfanyl-phenyl]-1-[2-[4-[[(2S)-4-[2-(dimethylamino)-2-oxo-ethyl]-2-methyl-piperazin-1-yl]methyl]-1-piperidyl]-2-oxo-ethyl]pyrazol-4-yl]pyrazolo[1,5-a]pyrimidine-3-carboxamide] were 0.63 nM, 0.46 nM and 62 nM.
On to `CSc1ccc(OC(F)F)c(-c2nn(CCN[C@@H]3CCOC3)cc2NC(=O)c2cnn3cccnc23)c1` [Example 11, (R)—N-(3-(2-(difluoromethoxy)-5-(methylthio)phenyl)-1-(2-((tetrahydrofuran-3-yl)amino)ethyl)-1H-pyrazol-4-yl)pyrazolo[1,5-a]pyrimidine-3-carboxamide], for which the Ki amounted to 0.21 nM in experiment [1] and 0.32 nM in experiment [3]. Further, the IC50 in experiment [2] amounted to 5.9 nM.
Taken in the same sequence, the figures for `CSc1ccc(OC(F)F)c(-c2nn(CC(=O)N3CCC(N4CCN(C5CCOCC5)CC4)CC3)cc2NC(=O)c2cnn3cccnc23)c1` [Example 70, N-[3-[2-(difluoromethoxy)-5-methylsulfanyl-phenyl]-1-[2-oxo-2-[4-(4-tetrahydropyran-4-ylpiperazin-1-yl)-1-piperidyl]ethyl]pyrazol-4-yl]pyrazolo[1,5-a]pyrimidine-3-carboxamide] were 0.82 nM, 0.42 nM and 38 nM.
The like results for `CC(C)Sc1ccc(OC(F)F)c(-c2nn(CC(=O)N3CCN(C4CCOC4)CC3)cc2NC(=O)c2cnn3cccnc23)c1` (stereo not drawn) [Example 128, N-[3-[2-(difluoromethoxy)-5-isopropylsulfanyl-phenyl]-1-[2-oxo-2-(4-tetrahydrofuran-3-ylpiperazin-1-yl)ethyl]pyrazol-4-yl]pyrazolo[1,5-a]pyrimidine-3-carboxamide] were, in that order, 1.2 nM, 0.58 nM and 47 nM.
Taken in the same sequence, the figures for `CSc1ccc(OC(F)F)c(-c2nn(CC(=O)N3CCN(CC4CCN(CC(=O)N5CCOCC5)CC4)CC3)cc2NC(=O)c2cnn3cccnc23)c1` [Example 93, N-[3-[2-(difluoromethoxy)-5-methylsulfanyl-phenyl]-1-[2-[4-[[1-(2-morpholino-2-oxo-ethyl)-4-piperidyl]methyl]piperazin-1-yl]-2-oxo-ethyl]pyrazol-4-yl]pyrazolo[1,5-a]pyrimidine-3-carboxamide] were 0.71 nM, 0.44 nM and 26 nM.
Regarding `O=C(Nc1cn(CC(=O)N2CCN(CC3CCOCC3)CC2)nc1-c1cc(SC2CC2)ccc1OC(F)F)c1cnn2cccnc12` [Example 165, N-[3-[5-cyclopropylsulfanyl-2-(difluoromethoxy)phenyl]-1-[2-oxo-2-[4-(tetrahydropyran-4-ylmethyl)piperazin-1-yl]ethyl]pyrazol-4-yl]pyrazolo[1,5-a]pyrimidine-3-carboxamide], the Ki in experiment [1] came to 0.67 nM; in experiment [3], 0.4 nM. The 50% inhibitory concentration (IC50) in experiment [2] is 20 nM.
Taken in the same sequence, the figures for `CSc1ccc(OC(F)F)c(-c2nn(CC(=O)N3CCC(N4CC5CC(C4)O5)CC3)cc2NC(=O)c2cnn3cccnc23)c1` [Example 75, N-[3-[2-(difluoromethoxy)-5-methylsulfanyl-phenyl]-1-[2-[4-(6-oxa-3-azabicyclo[3.1.1]heptan-3-yl)-1-piperidyl]-2-oxo-ethyl]pyrazol-4-yl]pyrazolo[1,5-a]pyrimidine-3-carboxamide] were 0.38 nM, 0.28 nM and 12 nM.
